The experiment addresses T1, DrOTOP1 G130W (Danio rerio, UniProt Q7ZWK8, G130W).
T1 construct: A previously generated codon-optimized full-length DrOTOP1[8]; (UniProt: Q7ZWK8) construct; expressed in transfected cells; host or cells: HEK-293 (CRL-1573, ATCC)
T1 sequence (Q7ZWK8 1-586 G130W): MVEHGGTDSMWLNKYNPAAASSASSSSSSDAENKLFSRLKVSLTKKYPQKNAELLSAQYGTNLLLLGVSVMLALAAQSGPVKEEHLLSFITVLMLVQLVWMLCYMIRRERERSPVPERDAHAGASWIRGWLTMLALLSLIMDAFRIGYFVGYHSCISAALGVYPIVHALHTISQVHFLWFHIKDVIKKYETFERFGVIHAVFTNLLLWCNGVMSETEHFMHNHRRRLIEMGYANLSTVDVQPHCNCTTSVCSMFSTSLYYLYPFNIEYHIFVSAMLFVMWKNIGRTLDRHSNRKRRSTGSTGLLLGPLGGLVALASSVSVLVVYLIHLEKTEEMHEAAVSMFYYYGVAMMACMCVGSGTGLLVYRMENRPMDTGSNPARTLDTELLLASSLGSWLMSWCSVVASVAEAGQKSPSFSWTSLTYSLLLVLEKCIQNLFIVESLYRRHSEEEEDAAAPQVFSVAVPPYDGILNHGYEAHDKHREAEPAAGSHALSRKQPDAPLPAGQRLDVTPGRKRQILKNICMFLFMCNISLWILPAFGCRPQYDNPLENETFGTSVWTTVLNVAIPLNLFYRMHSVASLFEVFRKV
The experiment in a line: Whole-cell patch-clamp, inhibition of acid-evoked currents, DrOTOP1 G130W (outer site). It is filed as cell-based, zebrafish (Danio rerio). An excerpt: To functionally test the significance of the two binding sites identified by cryo-EM, we generated point mutations of DrOTOP1 using the binding poses and conformational changes observed in DrOTOP1_C2.2 to guide our mutations. As per the binding pose that best fits our cryo-EM density, C2.2 forms the following interactions in the outer site: hydrophobic packing against many non-polar residues W126, G130, M133, L134, F271, F570, and M573, and π-stacking with W532 (Fig. 5A). In addition, C2.2 could potentially form H-bonds with E267, if the sidechain is protonated or a water bridge is present, and with H574 if it moves closer (Fig. 5A). Likewise, C2.36 presents a heterocyclic nitrogen that can potentially form a H-bond with E267, similarly, provided a protonation or water bridge is present (Fig. 5B). In addition, C2.36 forms a T-shaped π-stacking interaction with H574, whose sidechain has rotated 90 degrees (compared to DrOTOP1_apo), presumably to accommodate the interaction (Fig. 5B). Considering other inhibitors discovered from the second round of screening, many contain functional groups like the carbonyl groups of Group 1 molecules and the heterocyclic nitrogen atoms of Group 2 molecules (Supplementary Fig. 3E), that can potentially form similar H-bonds with E267 as C2.2 and C2.36, assuming the binding modes are similar. In the central site, C2.2 binds with the following interactions: hydrophobic packing with residues V201, F271, A274, V278, and A388, π-stacking with F277, and H-bonding with E384 (Fig. 5C).
Each non-aromatic residue was mutated to tryptophan, which was expected to cause steric occlusion. […] This seemed appropriate given the small number of H-bonds in these pockets, the ambiguity of how the inhibitors fit the density, and the prevalence of hydrophobic packing interactions (Fig. 5A–C).
HEK-293 cells (CRL-1573, ATCC) were cultured in DMEM (Thermofisher 11995073) containing 10% fetal bovine serum (Life Technology 16000044) and Penicillin-Streptomycin (100 I.U./mL) and (100 µg/mL), respectively. Cells were transfected with WT DrOTOP1 or mutant DrOTOP1 channels in 35 mm petri dishes, with ~ 500 ng DNA and 2 μL TransIT-LT1 transfection reagent (Mirus Bio Corporation, Cat # MIR2300) following the manufacturer’s protocol. All constructs were subcloned into a pcDNA3.1 vector that adds an N-terminal fusion tag consisting of an octahistidine tag followed by eGFP, a Gly-Thr-Gly-Thr linker and a 3C protease cleavage site ([…]) followed by WT DrOTOP1, WT mOTOP1, WT hOTOP1, or mutated DrOTOP1. Point mutations were generated via In-Fusion Cloning (Takara) using single-stranded DNA primers generated through IDT and sequence confirmed by Sanger sequencing (GeneWiz).
Whole-cell patch-clamp recording was performed as previously described[6],[22],[25]. Recordings were made with an Axopatch 200B amplifier, digitized with a Digidata 1322a 16-bit data acquisition system, acquired with pClamp 8.2 and analyzed with Clampfit 10 (Molecular Devices). Recordings were sampled at 5 kHz and filtered at 1 kHz. Patch Pipettes with resistance of […] were fabricated from borosilicate glass, and only recordings with a giga-Ohm seal were used in analysis. Membrane potential was held at −80 mV for the duration of recordings. At the beginning of recordings and between, cells were washed with Tyrode’s solution (see below). Once a giga-Ohm seal was reached, cells were lifted and placed in front of microcapillary tubes controlled by a Fast-Step perfusion system (Warner Instruments) so that extracellular solutions could be rapidly exchanged during each experiment.
Standard Tyrode’s solution consisted of 145 mM NaCl, 5 mM KCl, MgCl2, 2 mM CaCl2, 20 mM D-Glucose, and 10 mM HEPES (for pH 7.4). All other extracellular patch-clamp solutions contained 160 mM NMDG-Cl, 2 mM CaCl2, and the following buffers: 10 mM HEPES (for pH 7.4), 10 mM MES (for pH 6.5-5.5), 10 mM CHES for pH 10, and 10 mM HomoPIPES for (pH 5.0). pH adjusted with HCl. […]
In general terms: In patch-clamp work, channel activity is measured electrically.

“And” between values parts separate entries of the source, which are not always exact repeats. Identical values can stand only once.

On to `C=C(C)COc1ccccc1NC(=O)c1nc[nH]c1C` [C2.2], for which testing at 30 µM (30 µM, DrOTOP1 G130W, single cells) gave an inhibition of 15.3%. In addition, the inhibition (commonly the share of the control response that was lost under treatment) at 100 µM (DrOTOP1 G130W, single cells) was determined as 42.4%. Besides, the Hill coefficient (usually the slope factor of the fitted curve) (DrOTOP1 G130W) is given as 1.123. In addition, the 50% inhibitory concentration (IC50) – broadly, the midpoint of a concentration-inhibition curve – (DrOTOP1 G130W, pH 5.5) is 130 µM and 138 µM. Besides, where the note is “G130W + C2.2, n=5”, the “Mean, Fig 5N” value came out at 15.24. Where the note is “outer site mutants compared with WT”, the “Disruption of inhibitory activity by site-directed mutagenesis of outer site residues” value is at most 20 fold.

As to `O=C(/C(=N\O)c1ccccc1)c1ccccc1` [C11, benzil monoxime], the inhibition at 100 µM (DrOTOP1 G130W, single cells) was 62.7%.

(Values after paper PMC12549899 (Nature Communications, 2025).)
